Data on four compounds can be found in patent US6488953B2, “Oral transmucosal delivery” (Controlled Therapeutics (Scotland) Ltd., priority 1998, dated 2002).

Where “and” joins values, the source holds several entries; their conditions need not be identical. Equal entries are not always repeated.

The nature of series [1]: Lysozyme in-vitro release from dried slices (BCA assay). It counts as physicochemical. The settings on record: five dried slices in 30 ml demineralised water, after 24 hours. On the procedure: To determine the release profile of lysozyme from dried slices, five slices (0.86 g) were placed in a bottle and 30 ml of demineralised water added. Samples were taken regularly and analysed for protein using the BCA assay. A total of 22.9 mg (88.4%) was released after 24 hours.

A short description of series [2]: Oral dissolution model, chemical (HPLC) assay of tobramycin. It counts as physicochemical. The settings on record: for Chemical Dissolution (concentration in eluate): cells 1-3. On the procedure:
(§1) Six cells were sterilised by autoclaving and then connected to a Duran bottle of sterile water. The flow of water into the cell was controlled by a peristaltic pump (Watson Marlow, Falmouth, UK) to a rate of 0.5 ml/minute. Two different dosage forms (5.8 and 10.5 mg tobramycin) as 9.2 mm discs of thickness 1.7 mm and 130 mg weight were tested by placing directly under the inflow tube and media allowed to flow slowly across them. The dissolution cells were kept at an angle of about 10 degrees to the horizontal to allow flow away from the test units and towards the outflow tube where it was either run to waste or sampled for test. Samples of 2 ml were collected at various timepoints up to 3 hours and divided for chemical (HPLC) and microbiological assay. Tobramycin chemical analysis was carried out using a Dionex HPLC method. The microbiological assay was carried out by double diluting the eluted fractions with broth. These were then spiked with a known number of micro-organisms and incubated. The last tube without growth was then noted. By carrying this out in parallel against a series of prepared standards the inhibitory concentration could be derived.

In the next series the test system is micro-organisms. Kind of series: Oral dissolution model, microbiological assay of eluted fractions. It counts as cell-based. The note with it: cells 1-3. On the procedure: as §1
In a further series the test system is A.Xylosoxidans. Briefly: MIC microbiological assay. The series is classed as cell-based. The note with it: single drug. An excerpt:
(§2) A microbiological assay was developed to examine the efficacy of the colistin sulphate and tobramycin when loaded and released from the polymer at the same time. organisms were selected which were sensitive to only one of the antibiotics.

A further series has as its system S.Aureus. Kind of series: MIC microbiological assay. It counts as cell-based. The note with it: single drug.
Description: as §2

The nature of series [3]: Microbiological testing in-vitro, each drug alone. The series is classed as cell-based. The note with it: examined alone.
Description: as §2

Series [4] is described as follows: In-vivo release of colistin sulphate and tobramycin from buccal inserts. The settings on record: four subjects.
Description: The release of the two drugs was examined in four healthy subjects. The insert was placed against the buccal mucosa in the upper gingival tissue. Eating and smoking was not permitted during the study, drinking of tea, coffee or soft drinks was allowed.
Series [5] can be described thus: Apomorphine plasma levels after buccal inserts. The settings on record: one subject, insert containing 20 mg. It counts as in vivo, human. On the procedure:
1.1 mm thick inserts containing 5, 10 and 20 mg of apomorphine were tested for drug release in six subjects. The levels of drug observed in plasma was 0.2 to 0.8 ng/ml for five of the subjects and reached 5 ng/ml for one subject after administering an insert containing 20 mg of apomorphine.

The nature of series [6]: Apomorphine in-vivo release, 0.6 mm inserts. Details: species or system human. The settings on record: individual subjects 1-8. On the procedure: Inserts were prepared of thickness 0.6 mm and the release profile in-vitro compared with those of the 1.1 mm thick inserts.
A study was carried out in eight subjects. These included two subjects from the previous study and six new subjects.

As to Lysozyme, in [1], the total released is 22.9 mg and the “total released (%)” value worked out at 88.4%.
Turning to `NC[C@H]1O[C@H](O[C@H]2[C@H](O)[C@@H](O[C@H]3O[C@H](CO)[C@@H](O)[C@H](N)[C@H]3O)[C@H](N)C[C@@H]2N)[C@H](N)C[C@@H]1O` [Tobramycin], the “Chemical Dissolution (concentration in eluate)” value was 35.5 µg/mL and 26.7 µg/mL and 33.4 µg/mL in series [2] (5 mg Dose, 0.25 hrs); 23.7 µg/mL and 17.7 µg/mL and 24.0 µg/mL in [2] (5 mg Dose, 1 hrs); 14.0 µg/mL and 15.8 µg/mL and 18.6 µg/mL in series [2] (5 mg Dose, 2 hrs); 14.0 µg/mL and 12.0 µg/mL and 15.4 µg/mL in [2] (5 mg Dose, 3 hrs); 105.6 µg/mL and 85.3 µg/mL and 64.4 µg/mL in [2] (10 mg Dose, 0.25 hrs); 65.4 µg/mL and 44.6 µg/mL and 34.8 µg/mL in series [2] (10 mg Dose, 1 hrs). In addition, the “Chemical Dissolution (concentration in eluate)” value in series [2] (10 mg Dose, 2 hrs) is 48.7 µg/mL and 36.9 µg/mL and 27.9 µg/mL; in series [2] (10 mg Dose, 3 hrs) it was 36.5 µg/mL and 32.0 µg/mL and 27.0 µg/mL. In addition, the “time for which controlled release is maintained” value in series [2] (oral dissolution model, 0.5 ml/minute) was found to be 3 h. Also, the “Microbiological Measure of Activity (derived concentration)” value in the series on micro-organisms (5 mg Dose, 0.25 hrs) was 32 mcg/ml and 36 mcg/ml; in the series with micro-organisms (5 mg Dose, 2 hrs) it was 16 mcg/ml and 18 mcg/ml; in the series on micro-organisms (5 mg Dose, 3 hrs), 16 mcg/ml and 18 mcg/ml; in the series on micro-organisms (10 mg Dose, 0.25 hrs), 64 mcg/ml; in the series with micro-organisms (10 mg Dose, 1 hrs) it was 64 mcg/ml and 32 mcg/ml; in the series on micro-organisms (10 mg Dose, 2 hrs), 32 mcg/ml and 16 mcg/ml. Also, the “Microbiological Measure of Activity (derived concentration)” value in the series with micro-organisms (10 mg Dose, 3 hrs) was 32 mcg/ml and 16 mcg/ml. Also, the MIC in the series on A.Xylosoxidans was over 256 μ μgml^−1; against S.Aureus it was 4 μ μgml^−1. Besides, the microbiological activity entry in series [3] is on record as “microbiologically active”.
Consider Colistin Sulphate, for which the MIC against A.Xylosoxidans is 8 μ μgml^−1; with S.Aureus, over 32 μ μgml^−1. Moreover, in series [3], the microbiological activity result is listed as “microbiologically active”. Also, the “Mean Amount of Drug Released (%)” value is on record as 48.8% in series [4] (insert thickness 0.4 mm, 1 Hour); 98.6% in series [4] (insert thickness 0.4 mm, 3 Hours); 32.4% in series [4] (insert thickness 0.6 mm, 1 Hour); 92.8% in [4] (insert thickness 0.6 mm, 3 Hours); 26.7% in series [4] (insert thickness 0.8 mm, 1 Hour); 83.4% in series [4] (insert thickness 0.8 mm, 3 Hours). For the same compound, in series [4] (insert thickness 1.1 mm, 3 Hours), the “Mean Amount of Drug Released (%)” value stood at 57.9%.
Take `CN1CCc2cccc3c2[C@H]1Cc1ccc(O)c(O)c1-3` [Apomorphine]: the “levels of drug observed in plasma” value in series [5] is 5 ng/mL. The “% RELEASE” value in [6] (10 mg) is 6.4% and 42.8% and 30.4% and 10.9% and 0.48% and 25.1% and 26.0% and 3.4%; in [6] (18 mg) it was 2.64% and 15.2% and 26.3% and 21.5% and 4.1% and 7.5% and 49.2% and 19.4%; in series [6] (27 mg (am.)), 0.0% and 1.1% and 24.8% and 9.9% and 2.7% and 6.2% and 17.7% and 1.3%; in series [6] (27 mg (pm.)) it was 0.0% and 6.2% and 32.6% and 23.6% and 4.4% and 1.3% and 29.6% and 3.0%.
